Values after ≈ are worked out from the molar mass of the structure shown. Read-outs that look alike come from different tables or passages of the source.
Assays:
[1] = test system: E. coli tolC mutants; conditions: cited from earlier work
[2] = test system: bacterial protein synthesis (aminoacylation/translation system); test: aminoacylation/translation (A/T) assay; format: biochemical; conditions: for fold improvement in the IC50: relative to the original two compounds
[3] = test system: M. catarrhalis; conditions: Moraxella. catarrhalis; cited from earlier work
[4] = test system: E. coli modified with PMBN; conditions: cited from earlier work
[5] = test system: H. influenzae; conditions: Haemophilus influenzae; cited from earlier work
[6] = test system: S. pneumoniae; conditions: cited from earlier work
[7] = test system: E. faecalis; conditions: cited from earlier work
[8] = test system: S. aureus; conditions: cited from earlier work
[9] = test system: M. catarrhalis; test: Broth microdilution MIC testing; format: cell-based, Moraxella catarrhalis; conditions: for MIC: Moraxella catarrhalis
[10] = test system: E. coli modified with PMBN; test: Broth microdilution MIC testing; format: cell-based, Escherichia coli; conditions: for MIC E. coli +PMBP: E. coli modified with PMBN; for MIC: Escherichia coli, read-out: MIC E. coli +PMBP
[11] = test system: panel of bacteria; test: Antibacterial activity against the panel of bacteria (MIC, overall); format: cell-based; also: key: +: poor; ++: moderate; +++: good antibacterial activity
[12] = test system: H. influenzae; test: Broth microdilution MIC testing; format: cell-based, Haemophilus influenzae; conditions: for MIC H. flu: H. influenzae; for MIC: Haemophilus influenzae, read-out: MIC H. flu
[13] = test system: E. faecalis; test: Broth microdilution MIC testing; format: cell-based, Enterococcus faecalis; conditions: for MIC E. fae: E. faecalis; for MIC: Enterococcus faecalis, read-out: MIC E. fae
[14] = test system: E. coli tolC mutants; test: Broth microdilution MIC testing; format: cell-based, Escherichia coli; conditions: for MIC E. coli tolC: E. coli tolC mutants; for MIC: Escherichia coli, read-out: MIC E. coli tolC
[15] = test system: S. pneumoniae; test: Broth microdilution MIC testing; format: cell-based, Streptococcus pneumoniae; conditions: for MIC S. pneumo: S. pneumoniae; for MIC: Streptococcus pneumoniae, read-out: MIC S. pneumo
[16] = test system: S. aureus; test: Broth microdilution MIC testing; format: cell-based, Staphylococcus aureus; conditions: for MIC: Staphylococcus aureus, read-out: MIC S. aureus
[17] = original hits retested, read-out: IC50 (retested in the A/T assay)
[18] = A/T assay, Table 1, read-out: IC50

| SMILES | MIC M. cat [9] | IC50 [2, 18] | MIC E. coli +PMBP [10] | MIC (antibacterial activity grade) ([11]; Table 2) | MIC H. flu [12] | MIC E. fae [13] | MIC E. coli tolC [14] | MIC S. pneumo [15] | MIC S. aureus [16] | MIC (antibacterial activity grade) ([11]; Table 3) | further results |
| --- | --- | --- | --- | --- | --- | --- | --- | --- | --- | --- | --- |
| Oc1nc(-c2ccccn2)nc2c1CN(Cc1cccc(F)c1)CC2 [Compound 321525] |  |  |  |  |  |  |  |  |  |  | MIC [1]: 8 µg/mL (≈ 23.8 µM); IC50 [2, 17]: 2800 nM; MIC [3]: 0.25 µg/mL (≈ 0.743 µM); MIC [4]: 32 µg/mL (≈ 95.1 µM); MIC [5]: 4 µg/mL (≈ 11.9 µM); MIC [6]: 8 µg/mL (≈ 23.8 µM); MIC [7]: 32 µg/mL (≈ 95.1 µM); MIC [8]: 32 µg/mL (≈ 95.1 µM) |
| COc1cccc(CN2CCc3nc(-c4ccccn4)nc(O)c3C2)c1 [Compound 321528] |  |  |  |  |  |  |  |  |  |  | MIC [1]: 128 µg/mL (≈ 367 µM); IC50 [2, 17]: 1200 nM; MIC [3]: 2 µg/mL (≈ 5.74 µM); MIC [4]: 32 µg/mL (≈ 91.8 µM); MIC [5]: 8 µg/mL (≈ 23 µM); MIC [6]: 32 µg/mL (≈ 91.8 µM); MIC [7]: 128 µg/mL (≈ 367 µM); MIC [8]: > 128 µg/mL |
| CC(C)Oc1cccc(CN2CCc3nc(-c4ccccn4)[nH]c(=O)c3C2)c1 [Compound 323229] | 0.5 µg/mL (≈ 1.33 µM) | 530 nM | 16 µg/mL (≈ 42.5 µM) | ++ | 8 µg/mL (≈ 21.3 µM) | 64 µg/mL (≈ 170 µM) | 16 µg/mL (≈ 42.5 µM) | 8 µg/mL (≈ 21.3 µM) | 64 µg/mL (≈ 170 µM) |  |  |
| CC(C)(C)Oc1ccc(CN2CCc3nc(-c4ccccn4)[nH]c(=O)c3C2)cc1 [Compound 323366] | ≤0.12 µg/mL | 2470 nM | 2 µg/mL (≈ 5.12 µM) |  | 4 µg/mL (≈ 10.2 µM) | 8 µg/mL (≈ 20.5 µM) | 4 µg/mL (≈ 10.2 µM) | 2 µg/mL (≈ 5.12 µM) | 8 µg/mL (≈ 20.5 µM) | +++ |  |
| O=c1[nH]c(-c2ccccn2)nc2c1CN(Cc1cc3c(cc1Cl)OCO3)CC2 [Compound 323227] | 8 µg/mL (≈ 20.2 µM) | 370 nM | > 128 µg/mL | + | 32 µg/mL (≈ 80.6 µM) | > 128 µg/mL | 64 µg/mL (≈ 161 µM) | 64 µg/mL (≈ 161 µM) | > 128 µg/mL |  | fold improvement in the IC50 [2]: three to sevenfold |
| O=c1[nH]c(-c2ccccn2)nc2c1CN(Cc1cccc(Br)c1Br)CC2 [Compound 323367] | ≤0.12 µg/mL | 1890 nM | 8 µg/mL (≈ 16.8 µM) |  | 1 µg/mL (≈ 2.1 µM) | 4 µg/mL (≈ 8.4 µM) | 2 µg/mL (≈ 4.2 µM) | 2 µg/mL (≈ 4.2 µM) | 8 µg/mL (≈ 16.8 µM) | +++ |  |
| O=c1[nH]c(-c2ccccn2)nc2c1CN(CCc1ccc(Cl)cc1)CC2 [Compound 323370] |  | 280 nM |  | +++ |  |  |  |  |  |  | MIC [9]: ≤ 0.12 µg/mL; MIC [10]: 8 µg/mL (≈ 21.8 µM); MIC [12]: 2 µg/mL (≈ 5.45 µM); MIC [13]: 16 µg/mL (≈ 43.6 µM); MIC [14]: 8 µg/mL (≈ 21.8 µM); MIC [15]: 4 µg/mL (≈ 10.9 µM); MIC [16]: 16 µg/mL (≈ 43.6 µM) |
| CN(C)c1ccc(CN2CCc3nc(-c4ccccn4)[nH]c(=O)c3C2)cc1 [Compound 323218] | 4 µg/mL (≈ 11.1 µM) | 240 nM | 64 µg/mL (≈ 177 µM) | + | 16 µg/mL (≈ 44.3 µM) | > 128 µg/mL | 128 µg/mL (≈ 354 µM) | 32 µg/mL (≈ 88.5 µM) | > 128 µg/mL |  | fold improvement in the IC50 [2]: five and tenfold |
| Oc1nc(-c2ccccn2)nc2c1CCN(Cc1ccc(Cl)cc1)C2 [Compound 323338] |  | 64400 nM |  |  |  |  |  |  |  | +++ | MIC [9]: ≤ 0.12 µg/mL; MIC [10]: 8 µg/mL (≈ 22.7 µM); MIC [12]: 2 µg/mL (≈ 5.67 µM); MIC [13]: 16 µg/mL (≈ 45.3 µM); MIC [14]: 4 µg/mL (≈ 11.3 µM); MIC [15]: 4 µg/mL (≈ 11.3 µM); MIC [16]: 16 µg/mL (≈ 45.3 µM) |
